In US10285989B2, “Pyrimidinone amide compounds as PDE2 inhibitors” (Merck Sharp & Dohme Corp., priority 2015, dated 2019):

Target: human PDE2A1 (Homo sapiens (Human), UniProt O00408)
Assay: PDE2 IMAP FP inhibition assay, human PDE2A1 (selectivity panel format)
Format: biochemical
Conditions: Lab B; for inhibition at 3 µM: read-out: Human PDE2 % inhibition at a given concentration - Lab B; for Ki: read-out: Human PDE2 Ki (nM) - Lab B
Description: Selectivity for PDE2, as compared to other PDE families, was assessed using the IMAP® technology. Human PDE10A2 enzyme was prepared from cytosolic fractions of transiently transfected HEK cells.
A Labcyte POD 810 (Labcyte, Sunnyvale, Calif.) was used to dispense 200 nL from each well of the titration plate to make eleven copies of the assay plate for each titration, one copy for each PDE enzyme. A solution of each enzyme (dilution from aliquots, sufficient to produce 20% substrate conversion) and a separate solution of FAM-labeled cAMP or FAM-labeled cGMP from Molecular Devices (Sunnyvale, Calif., product # R7506 or cGMP#R7508), at a final concentration of 50 nM were made in the assay buffer (10 mM Tris HCl, pH 7.2, 10 mM MgCl2, 0.05% NaN3 0.01% Tween-20, and 1 mM DTT). Note that the substrate for PDE2 is 50 nM FAM cAMP containing 1000 nM of cGMP. The enzyme and the substrate were then added to the assay plates in two consecutive additions of 10 μL and then shaken to mix. The reaction was allowed to proceed at room temperature for 60 minutes. A binding solution was then made from the kit components, comprised of 80% Solution A, 20% Solution B and binding reagent at a volume of 1/600 the total binding solution. The enzymatic reaction was stopped by addition of 60 μL of the binding solution to each well of the assay plate. The plates were sealed and shaken for 10 seconds. The plates were incubated at room temperature for one hour, then the parallel and perpendicular fluorescence was measured using a Tecan Genios Pro plate reader (Tecan, Switzerland). […] The intrinsic PDE2 inhibitory activity of a compound which may be used in accordance with the present invention may be determined by these assays. […]

Sequence of human PDE2A1 (O00408 other isoform, or with tags, fused parts or gaps): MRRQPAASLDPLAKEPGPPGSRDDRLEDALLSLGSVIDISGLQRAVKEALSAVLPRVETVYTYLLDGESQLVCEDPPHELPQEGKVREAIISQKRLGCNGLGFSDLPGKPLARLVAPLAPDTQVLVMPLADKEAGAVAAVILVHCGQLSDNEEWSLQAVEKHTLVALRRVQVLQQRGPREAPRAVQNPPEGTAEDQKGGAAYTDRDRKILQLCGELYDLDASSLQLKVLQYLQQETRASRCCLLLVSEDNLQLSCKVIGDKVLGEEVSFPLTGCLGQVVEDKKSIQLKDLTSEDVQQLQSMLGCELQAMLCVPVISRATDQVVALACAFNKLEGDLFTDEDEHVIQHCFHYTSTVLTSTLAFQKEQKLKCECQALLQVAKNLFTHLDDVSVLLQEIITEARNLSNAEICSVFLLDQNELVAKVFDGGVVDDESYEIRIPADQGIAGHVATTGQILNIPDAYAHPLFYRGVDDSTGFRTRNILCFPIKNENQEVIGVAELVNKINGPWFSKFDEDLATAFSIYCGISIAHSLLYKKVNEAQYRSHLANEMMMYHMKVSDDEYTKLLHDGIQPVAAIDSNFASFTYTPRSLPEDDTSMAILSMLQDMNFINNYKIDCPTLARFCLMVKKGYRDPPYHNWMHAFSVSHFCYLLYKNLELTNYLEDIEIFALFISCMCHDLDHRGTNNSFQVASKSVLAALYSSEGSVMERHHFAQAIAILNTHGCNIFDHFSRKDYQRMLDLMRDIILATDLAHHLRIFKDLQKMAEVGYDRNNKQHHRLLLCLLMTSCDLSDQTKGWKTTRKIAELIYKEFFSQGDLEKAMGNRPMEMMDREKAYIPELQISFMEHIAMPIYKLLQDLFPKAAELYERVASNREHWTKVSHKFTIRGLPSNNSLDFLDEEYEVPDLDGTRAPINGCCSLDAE

| SMILES | inhibition at 3 µM | Ki |
| --- | --- | --- |
| CN(C)c1nc(C(=O)NC(c2ccc(SC(F)(F)F)c(F)c2)C2(C)CC2)cc(=O)[nH]1 (single isomer, unassigned) [Example 119, (S)- or (R)-2-(dimethylamino)-N-[{3-fluoro-4-[(trifluoromethyl)sulfanyl]phenyl}(1-methylcyclopropyl)methyl]-6-oxo-1,6-dihydropyrimidine-4-carboxamide] | 49% |  |
| CC(NC(=O)c1cc(=O)[nH]c(N(C)C)n1)c1ccc(C(C)(C)C(F)(F)F)cc1 (single isomer, unassigned) [Example 121, (S)- or (R)-2-(dimethylamino)-6-oxo-N-{1-[4-(2,2,2-trifluoro-1,1-dimethylethyl)phenyl]ethyl}-1,6-dihydropyrimidine-4-carboxamide] | 15% |  |
| CC(NC(=O)c1cc(=O)[nH]c(N(C)C)n1)c1ccc(C(C)(C)C(F)(F)F)cc1 (single isomer, unassigned) [Example 122, (R)- or (S)-2-(dimethylamino)-6-oxo-N-{1-[4-(2,2,2-trifluoro-1,1-dimethylethyl)phenyl]ethyl}-1,6-dihydropyrimidine-4-carboxamide] |  | 34 nM |
| CN(C)c1nc(C(=O)NC(c2ccc(C3(C)CC3)c(F)c2)C(C)(C)C)cc(=O)[nH]1 (single isomer, unassigned) [Example 123, (S)- or (R)-2-(dimethylamino)-N-{1-[3-fluoro-4-(1-methylcyclopropyl)phenyl]-2,2-dimethylpropyl}-6-oxo-1,6-dihydropyrimidine-4-carboxamide] |  | 167 nM |
| CC(NC(=O)c1cc(=O)[nH]c(N(C)C)n1)c1ccc(C2(C(F)(F)F)CC2)cc1 (single isomer, unassigned) [Example 125, (S)- or (R)-2-(dimethylamino)-6-oxo-N-[1-{4-[1-(trifluoromethyl)cyclopropyl]phenyl}ethyl]-1,6-dihydropyrimidine-4-carboxamide] | 38% |  |
| CC(NC(=O)c1cc(=O)[nH]c(N(C)C)n1)c1ccc(C2(C(F)(F)F)CC2)cc1 (single isomer, unassigned) [Example 126, (R)- or (S)-2-(dimethylamino)-6-oxo-N-[1-{4-[1-(trifluoromethyl)cyclopropyl]phenyl}ethyl]-1,6-dihydropyrimidine-4-carboxamide] |  | 16 nM |
| CN(C)c1nc(C(=O)NC(c2ccc(S(F)(F)(F)(F)F)cc2F)C(C)(C)C)cc(=O)[nH]1 (single isomer, unassigned) [Example 127, (S)- or (R)-2-(dimethylamino)-N-{1-[2-fluoro-4-(pentafluoro-λ^6-sulfanyl)phenyl]-2,2-dimethylpropyl}-6-oxo-1,6-dihydropyrimidine-4-carboxamide] |  | 527 nM |
| COCC1CCN(c2nc(C(=O)N[C@@H](c3ccc(C(F)(F)F)cc3)C(C)(C)C)cc(=O)[nH]2)C1 (single isomer, unassigned) [Example 177, (S)- or (R)-N-{(1R)-2,2-dimethyl-1-[4-(trifluoromethyl)phenyl]propyl}-2-[3-(methoxymethyl)pyrrolidin-1-yl]-6-oxo-1,6-dihydropyrimidine-4-carboxamide] |  | 0.46 nM |
| CC(C)[C@@H](NC(=O)c1cc(=O)[nH]c(O)n1)c1ccc(SC(F)(F)F)cc1 [Example 20, (R)-2-hydroxy-N-(2-methyl-1-(4-((trifluoromethyl)thio)phenyl)propyl)-6-oxo-1,6-dihydropyrimidine-4-carboxamide] |  | 329 nM |
| CN(C)c1nc(C(=O)NC2(c3ccc(OC(C)(C)C)cc3)CC2)cc(=O)[nH]1 [Example 50, N-[1-(4-tert-butoxyphenyl)cyclopropyl]-2-(dimethylamino)-6-oxo-1,6-dihydropyrimidine-4-carboxamide] |  | 27 nM |
| CN(C)c1nc(C(=O)N[C@H](c2ccc(C(F)(F)F)cc2)C(C)(C)C)cc(=O)[nH]1 [Example 72, 2-(dimethylamino)-N-{(1S)-2,2-dimethyl-1-[4-(trifluoromethyl)phenyl]propyl}-6-oxo-1,6-dihydropyrimidine-4-carboxamide] |  | 17 nM |
| CN(C)c1nc(C(=O)NC(C)(C)c2ccc(OC(F)(F)F)cc2F)cc(=O)[nH]1 [Example 81, 2-(dimethylamino)-N-{1-[2-fluoro-4-(trifluoromethoxy)phenyl]-1-methylethyl}-6-oxo-1,6-dihydropyrimidine-4-carboxamide] |  | 21 nM |
| C[C@@H](NC(=O)c1cc(=O)[nH]c(N(C)C)n1)c1ccc(S(F)(F)(F)(F)F)cc1F [Example 116, (R)-2-(dimethylamino)-N-(1-(4-(pentafluorothio)-2-fluorophenyl)ethyl)-6-oxo-1,6-dihydropyrimidine-4-carboxamide] |  | 749 nM |

The remaining lines, values ahead:

| inhibition at 3 µM | Ki | SMILES |
| --- | --- | --- |
|  | 5.5 nM | CCC(C)(NC(=O)c1cc(=O)[nH]c(N(C)C)n1)c1ccc(C(F)(F)F)cc1F (single isomer, unassigned) [Example 129, (S)- or (R)-2-(dimethylamino)-N-{1-[2-fluoro-4-(trifluoromethyl)phenyl]-1-methylpropyl}-6-oxo-1,6-dihydro-pyrimidine-4-carboxamide] |
|  | 2.7 nM | C[C@H]1C[C@]1(NC(=O)c1cc(=O)[nH]c(N(C)C)n1)c1ccc(C(F)(F)F)cc1 (single isomer, unassigned; enantiomer a) [Example 174, 2-(dimethylamino)-N-{2-methyl-1-[4-(trifluoromethyl)phenyl]cyclopropyl}-6-oxo-1,6-dihydropyrimidine-4-carboxamide (cis, enantiomer A)] |
|  | 0.92 nM | C[C@H]1C[C@]1(NC(=O)c1cc(=O)[nH]c(N(C)C)n1)c1ccc(C(F)(F)F)cc1 (single isomer, unassigned; enantiomer b) [Example 175, 2-(dimethylamino)-N-{2-methyl-1-[4-(trifluoromethyl)phenyl]cyclopropyl}-6-oxo-1,6-dihydropyrimidine-4-carboxamide (cis, enantiomer B)] |
|  | 2.7 nM | CN(C)c1nc(C(=O)NC2(c3ccc(C(F)(F)F)cc3F)CC2)cc(=O)[nH]1 [Example 49, 2-(dimethylamino)-N-{1-[2-fluoro-4-(trifluoromethyl)phenyl]cyclopropyl}-6-oxo-1,6-dihydropyrimidine-4-carboxamide] |
|  | 9.7 nM | CN(C)c1nc(C(=O)NC2(c3ccc(CC(F)(F)F)cc3)CC2)cc(=O)[nH]1 [Example 51, 2-(dimethylamino)-6-oxo-N-{1-[4-(2,2,2-trifluoroethyl)phenyl]cyclopropyl}-1,6-dihydropyrimidine-4-carboxamide] |
|  | 11 nM | CN(C)c1nc(C(=O)NC2(c3ccc(OC(F)F)cc3)CC2)cc(=O)[nH]1 [Example 52, N-{1-[4-(difluoromethoxy)phenyl]cyclopropyl}-2-(dimethylamino)-6-oxo-1,6-dihydropyrimidine-4-carboxamide] |
|  | 4 nM | CN(C)c1nc(C(=O)N[C@@H](c2ccc(OC(F)F)c(F)c2)C2CC2)cc(=O)[nH]1 [Example 53, N-{(R)-cyclopropyl[4-(difluoromethoxy)-3-fluorophenyl]methyl}-2-(dimethylamino)-6-oxo-1,6-dihydropyrimidine-4-carboxamide] |
|  | 2.2 nM | CC(C)[C@@H](NC(=O)c1cc(=O)[nH]c(N(C)C)n1)c1ccc(C(F)F)c(F)c1 [Example 65, N-{(1R)-1-[4-(difluoromethyl)-3-fluorophenyl]-2-methylpropyl}-2-(dimethylamino)-6-oxo-1,6-dihydropyrimidine-4-carboxamide] |
|  | 6.9 nM | CC[C@@H](NC(=O)c1cc(=O)[nH]c(N(C)C)n1)c1ccc(C(F)F)cc1 [Example 67, N-{(1R)-1-[4-(difluoromethyl)phenyl]propyl}-2-(dimethylamino)-6-oxo-1,6-dihydropyrimidine-4-carboxamide] |
|  | 12 nM | CC[C@@H](NC(=O)c1cc(=O)[nH]c(N(C)C)n1)c1ccc(C(F)F)c(F)c1 [Example 68, N-{(1R)-1-[4-(difluoromethyl)-3-fluorophenyl]propyl}-2-(dimethylamino)-6-oxo-1,6-dihydropyrimidine-4-carboxamide] |
|  | 10 nM | CN(C)c1nc(C(=O)NC(C)(C)c2ccc(C(F)F)c(F)c2)cc(=O)[nH]1 [Example 69, N-{1-[4-(difluoromethyl)-3-fluorophenyl]-1-methylethyl}-2-(dimethylamino)-6-oxo-1,6-dihydropyrimidine-4-carboxamide] |
|  | 9.7 nM | CN(C)c1nc(C(=O)NC2(c3ccc(C(F)F)c(F)c3)CC2)cc(=O)[nH]1 [Example 70, N-{1-[4-(difluoromethyl)-3-fluorophenyl]cyclopropyl}-2-(dimethylamino)-6-oxo-1,6-dihydropyrimidine-4-carboxamide] |
|  | 3.9 nM | C[C@@H](NC(=O)c1cc(=O)[nH]c(N(C)C)n1)c1ccc(C(C)(F)F)cc1 [Example 74, N-{(1R)-1-[4-(1,1-difluoroethyl)phenyl]ethyl}-2-(dimelhylamino)-6-oxo-1,6-dihydropyrimidine-4-carboxamide] |
|  | 0.39 nM | CC(C)[C@@H](NC(=O)c1cc(=O)[nH]c(N(C)C)n1)c1ccc(C(C)(F)F)cc1 [Example 75, N-{(1R)-1-[4-(1,1-difluoroethyl)phenyl]-2-methylpropyl}-2-(dimethylamino)-6-oxo-1,6-dihydropyrimidine-4-carboxamide] |
